Results as given in patent US9067926B2, “Fluoromethyl-5,6-dihydro-4H-[1,3]OXAZINES” (F. Hoffmann-La Roche AG, priority 2012, dated 2015).

What was measured:
[1] = tested on: Aβ40 in brain; assay: In vivo inhibition of Aβ40 in brain of wild-type mice; conditions: Mus musculus, po; 10 mg/kg p.o., brain Aβ40 after 4 h, female C57Bl/6J mice; read-out: in vivo effect, Percentage of control @ 10 mg/kg p.o
Procedure: In Vivo Experiments. […] The test compound was dissolved in 5% EtOH, 10% Solutol and was applied per os at 10 ml/kg. After 4 h the animals were sacrificed and brain and plasma were collected. The brain was cut into halves and immediately frozen on dry ice. Brain was used for measurement of Aβ40 and plasma was used for determination of compound exposure. […] Brain tissue was homogenized in 2% DEA buffer in a Roche […] (20'', 4000 rpm) and subsequently centrifuged for 1 h at 100'000 g. DEA was reduced to 0.2% in 50 mM NaCl and one half of the DEA lysate was passed over an Oasis Solid Phase extraction plate (Waters; Cat.Nr. 186000679) which had been activated with MeOH and equilibrated in dH2O (1 ml each). After washes in 10% and 30% MeOH (1 ml each) the AP-peptides were eluted in 0.8 ml 2% NH4OH in 90% MeOH. […] Aβ40 was determined by an AlphaLISA assay (Perkin Elmer). In a white 96well half-area microplate (Perkin Elmer Cat.Nr. 6005561), 20 μl of the reconstituted sample were mixed with 5 μl biotinylated BAP-24 (specific for C-terminus of Aβ40 (Brockhaus, M.; Grunberg, J.; Rohrig, S.; Loetscher, H.; Wittenburg, N.; Baumeister, R.; Jacobsen, […]. Caspase-mediated cleavage is not required for the activity of presenilins in amyloidogenesis and NOTCH signaling. […] The mix was incubated for 1 h at RT in the dark. Then 20 μl Streptavin-coated Donor Beads (Perkin Elmer Cat. Nr. 6760002, final dilution 1:125) were added and this final mix was incubated in the dark for another 30 min at r.t. before RFU was measured in an AlphaScreen Reader(Perkin Elmer Envision 2104).

[2] = biological target: T1, recombinant human cathepsin E (Homo sapiens, UniProt P14091); assay: Cathepsin E fluorescent substrate kinetic assay; type: biochemical; conditions: pH 4.5
T1 construct: purchased R&D Systems
T1 sequence (P14091 54-396): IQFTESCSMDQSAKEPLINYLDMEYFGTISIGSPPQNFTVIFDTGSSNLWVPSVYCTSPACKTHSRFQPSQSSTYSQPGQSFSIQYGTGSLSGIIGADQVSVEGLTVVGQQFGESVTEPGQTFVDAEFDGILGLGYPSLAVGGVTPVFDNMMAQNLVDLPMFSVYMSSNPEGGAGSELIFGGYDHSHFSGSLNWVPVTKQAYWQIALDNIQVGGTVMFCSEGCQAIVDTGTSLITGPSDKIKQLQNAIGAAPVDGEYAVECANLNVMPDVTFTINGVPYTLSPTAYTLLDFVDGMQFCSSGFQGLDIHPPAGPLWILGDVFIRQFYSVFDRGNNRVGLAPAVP
Excerpt: (§1) Cathepsin D and Cathepsin E Fluorescent Substrate Kinetic Assays
(§2) The MR121 fluorescence assays described below are based on the fact that MR121 forms a non-fluorescent ground state complex with tryptophan. In solution this formation occurs at millimolar concentrations of tryptophan. The mechanism can be used to design a generic biochemical assay for proteases. […] In absence of protease activity, the substrates remain intact and the MR121 fluorescence is reduced by the high local Trp-concentration. If the substrates are cleaved by the enzymes the MR121 fluorescence is recovered.
(§3) The fluorescent substrate cathepsin D and cathepsin E kinetic assays were performed at room temperature in 384-well microtiter plates (black with clear flat bottom, non binding surface plates from Corning) in a final volume of 51 μl. The test compounds were serially diluted in DMSO (15 concentrations, 1/3 dilution steps) and 1 μl of diluted compounds were mixed for 10 min with 40 μl of cathepsin D (from human liver, Calbiochem) diluted in assay buffer (100 mM sodium acetate, 0.05% BSA, pH 5.5; final concentration: 200 nM) or with 40 μl of recombinant human cathepsin E (R&D Systems) diluted in assay buffer (100 mM sodium acetate, 0.05% BSA, pH 4.5; final concentration: 0.01 nM). […] The slope in the linear range of the kinetic was calculated and the IC50 of the test compounds were determined using a four parameter equation for curve fitting.

[3] = biological target: T2, CYP2C9 (Homo sapiens, UniProt P11712); assay: CYP inhibition assay, CYP2C9; type: in vitro ADME; conditions: pooled human liver microsomes, diclofenac substrate; read-out: CYP IC50 2C9
T2 construct: 0.2 mg/ml pooled human liver microsomes; from tissue; host or cells: pooled human liver microsomes
T2 sequence (P11712 whole entry): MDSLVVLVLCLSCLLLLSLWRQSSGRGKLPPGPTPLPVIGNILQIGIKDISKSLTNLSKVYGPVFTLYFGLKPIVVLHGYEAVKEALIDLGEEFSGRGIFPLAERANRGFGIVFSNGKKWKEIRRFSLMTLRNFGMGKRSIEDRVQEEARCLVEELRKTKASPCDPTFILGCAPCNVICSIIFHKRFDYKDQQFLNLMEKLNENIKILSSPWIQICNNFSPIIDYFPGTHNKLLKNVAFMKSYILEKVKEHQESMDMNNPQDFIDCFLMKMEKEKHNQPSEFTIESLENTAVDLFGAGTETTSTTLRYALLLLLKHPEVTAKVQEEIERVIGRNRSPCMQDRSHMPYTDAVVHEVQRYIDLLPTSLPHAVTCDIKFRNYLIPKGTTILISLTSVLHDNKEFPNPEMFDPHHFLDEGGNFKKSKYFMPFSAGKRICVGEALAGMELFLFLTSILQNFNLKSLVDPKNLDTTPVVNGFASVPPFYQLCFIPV
Procedure: (§4) Inhibition of cytochromes P450 (CYPs) 2C9, 2D6 and 3A4 was assessed using human liver microsomes and CYP-selective substrate metabolism reactions. […] Quenched incubates were stored at −20° C. for at least 1 hour before centrifugation (20,000×g, 20 minutes). Supernatants were removed and diluted 1:1 with water prior to analysis using a RapidFire sample injector system and API4000 mass spectrometer. Peak areas for substrate, metabolite and stable-labelled metabolite standard were determined using MS/MS. The peak area ratios between the metabolite generated by the enzymatic reaction and the internal standard were used in subsequent calculations. The percentage of (DMSO) control activity was calculated for each incubate and IC50 values estimated by non-linear regression. Sulfaphenazole, quinidine or ketoconazole were tested in each CYP2C9, CYP2D6 or CYP3A4 inhibition experiment, respectively, to ensure assay sensitivity and reproducibility.

[4] = biological target: hERG (Homo sapiens, UniProt Q12809); assay: hERG current measurement (automated patch clamp); type: cell-based
Sequence of hERG (Q12809 whole entry): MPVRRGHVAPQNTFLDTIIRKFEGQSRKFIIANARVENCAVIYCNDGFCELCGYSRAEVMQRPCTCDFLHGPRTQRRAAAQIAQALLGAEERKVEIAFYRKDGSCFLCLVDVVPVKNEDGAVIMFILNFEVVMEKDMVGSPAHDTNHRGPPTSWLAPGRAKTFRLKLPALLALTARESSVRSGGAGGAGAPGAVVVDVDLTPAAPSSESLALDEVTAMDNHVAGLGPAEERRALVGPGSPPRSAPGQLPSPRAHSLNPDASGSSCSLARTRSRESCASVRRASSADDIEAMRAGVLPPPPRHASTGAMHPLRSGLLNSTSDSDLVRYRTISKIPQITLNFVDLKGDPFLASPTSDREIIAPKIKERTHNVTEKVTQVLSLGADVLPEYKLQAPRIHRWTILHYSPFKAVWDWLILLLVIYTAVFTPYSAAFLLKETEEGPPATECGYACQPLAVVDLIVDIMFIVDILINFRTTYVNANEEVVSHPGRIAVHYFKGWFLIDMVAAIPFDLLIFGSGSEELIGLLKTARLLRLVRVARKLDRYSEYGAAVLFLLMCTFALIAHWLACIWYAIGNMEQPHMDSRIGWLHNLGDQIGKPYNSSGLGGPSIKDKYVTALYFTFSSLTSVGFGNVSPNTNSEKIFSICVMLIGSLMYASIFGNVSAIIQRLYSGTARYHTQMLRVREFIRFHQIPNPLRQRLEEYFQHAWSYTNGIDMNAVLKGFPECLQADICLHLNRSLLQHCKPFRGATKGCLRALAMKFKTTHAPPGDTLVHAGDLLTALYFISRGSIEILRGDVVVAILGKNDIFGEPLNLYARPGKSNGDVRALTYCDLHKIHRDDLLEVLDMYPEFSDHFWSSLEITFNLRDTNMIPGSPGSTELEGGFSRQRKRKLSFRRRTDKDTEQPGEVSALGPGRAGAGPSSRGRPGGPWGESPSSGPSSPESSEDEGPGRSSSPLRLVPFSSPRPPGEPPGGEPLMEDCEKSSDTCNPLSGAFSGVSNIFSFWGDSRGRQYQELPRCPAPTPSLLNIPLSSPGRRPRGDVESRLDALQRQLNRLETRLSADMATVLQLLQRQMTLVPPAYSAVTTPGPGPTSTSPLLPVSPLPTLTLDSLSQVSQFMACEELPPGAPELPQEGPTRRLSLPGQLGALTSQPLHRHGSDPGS
Procedure: The hERG current measurement was performed at an automated patch clamp system following the procedure described in R. E. Martin et al. in Bio org.

[5] = biological target: T3, CYP3A4 (Homo sapiens, UniProt P08684); assay: CYP inhibition assay, CYP3A4; type: in vitro ADME; conditions: pooled human liver microsomes, midazolam substrate; read-out: CYP IC50 3A4
T3 construct: 0.2 mg/ml pooled human liver microsomes; from tissue; host or cells: pooled human liver microsomes
T3 sequence (P08684 whole entry): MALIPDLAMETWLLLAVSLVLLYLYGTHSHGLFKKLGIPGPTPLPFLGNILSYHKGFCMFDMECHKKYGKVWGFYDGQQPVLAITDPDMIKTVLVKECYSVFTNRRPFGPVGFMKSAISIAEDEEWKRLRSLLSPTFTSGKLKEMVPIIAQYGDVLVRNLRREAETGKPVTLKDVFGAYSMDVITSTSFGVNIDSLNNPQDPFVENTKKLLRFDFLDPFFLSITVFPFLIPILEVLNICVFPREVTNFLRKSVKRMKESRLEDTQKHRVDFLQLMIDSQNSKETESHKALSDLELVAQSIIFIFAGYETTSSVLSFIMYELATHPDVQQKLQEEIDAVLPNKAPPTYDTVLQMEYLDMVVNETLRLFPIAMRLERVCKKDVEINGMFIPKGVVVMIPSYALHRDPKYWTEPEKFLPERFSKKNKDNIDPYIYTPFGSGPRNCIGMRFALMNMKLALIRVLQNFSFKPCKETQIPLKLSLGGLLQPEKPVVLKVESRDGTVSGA
Procedure: as §4

[6] = biological target: T4, cathepsin D (from human liver) (Homo sapiens, UniProt P07339); assay: Cathepsin D fluorescent substrate kinetic assay; type: biochemical; conditions: pH 5.5
T4 construct: cathepsin D (from human liver, Calbiochem) diluted in assay buffer; purchased Calbiochem; host or cells: human liver
T4 sequence (P07339 65-412): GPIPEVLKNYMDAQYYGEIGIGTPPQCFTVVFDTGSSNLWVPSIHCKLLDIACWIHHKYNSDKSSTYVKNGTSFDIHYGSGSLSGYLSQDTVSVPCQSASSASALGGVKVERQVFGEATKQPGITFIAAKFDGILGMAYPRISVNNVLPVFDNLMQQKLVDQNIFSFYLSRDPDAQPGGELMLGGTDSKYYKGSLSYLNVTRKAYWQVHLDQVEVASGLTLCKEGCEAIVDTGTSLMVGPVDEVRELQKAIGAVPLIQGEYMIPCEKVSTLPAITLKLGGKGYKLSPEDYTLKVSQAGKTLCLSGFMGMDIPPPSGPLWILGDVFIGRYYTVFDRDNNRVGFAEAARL
Excerpt: as §1, §2, §3

[7] = biological target: T5, CYP2D6 (Homo sapiens, UniProt P10635); assay: CYP inhibition assay, CYP2D6; type: in vitro ADME; conditions: pooled human liver microsomes, dextromethorphan substrate; read-out: CYP IC50 2D6
T5 construct: 0.2 mg/ml pooled human liver microsomes; from tissue; host or cells: pooled human liver microsomes
T5 sequence (P10635 whole entry): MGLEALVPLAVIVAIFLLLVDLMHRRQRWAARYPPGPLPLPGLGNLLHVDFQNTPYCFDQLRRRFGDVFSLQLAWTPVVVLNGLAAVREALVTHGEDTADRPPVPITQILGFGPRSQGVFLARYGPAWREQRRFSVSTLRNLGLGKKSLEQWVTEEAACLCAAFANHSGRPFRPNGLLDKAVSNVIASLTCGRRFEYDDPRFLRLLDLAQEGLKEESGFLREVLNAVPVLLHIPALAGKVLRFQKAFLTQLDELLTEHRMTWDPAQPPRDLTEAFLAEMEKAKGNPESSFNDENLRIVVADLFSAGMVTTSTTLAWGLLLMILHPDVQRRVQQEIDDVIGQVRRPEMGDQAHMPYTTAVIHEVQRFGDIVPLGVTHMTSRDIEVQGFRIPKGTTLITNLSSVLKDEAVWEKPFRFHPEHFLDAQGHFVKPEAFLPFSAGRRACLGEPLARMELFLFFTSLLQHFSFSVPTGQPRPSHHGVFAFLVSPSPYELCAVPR
Procedure: as §4

[8] = Detection of glutathione conjugates (GSH); type: in vitro ADME, human; parameters: key: NF = in vitro no adduct formation relative to control; conditions: in vitro, relative to control
Excerpt: Detection of Glutathione Conjugates (GSH) The assay conditions for the detection of glutathione conjugates follow the procedure described by C. M. Dieckhaus et al. in Chem. Res. Toxicol. 2005, 18, 630-63.

[9] = biological target: T6, BACE1 (Homo sapiens, UniProt P56817); assay: Cellular Aβ-lowering assay (Abeta 40 AlphaLISA); type: cell-based; conditions: HEK293 APP cells, 18-20 hrs incubation, Aβ 40 in culture supernatant; read-out: BACE1 cell act. Aβ40 IC50
T6 construct: endogenous in cells; host or cells: HEK293 APP cells
T6 sequence (P56817 46-501): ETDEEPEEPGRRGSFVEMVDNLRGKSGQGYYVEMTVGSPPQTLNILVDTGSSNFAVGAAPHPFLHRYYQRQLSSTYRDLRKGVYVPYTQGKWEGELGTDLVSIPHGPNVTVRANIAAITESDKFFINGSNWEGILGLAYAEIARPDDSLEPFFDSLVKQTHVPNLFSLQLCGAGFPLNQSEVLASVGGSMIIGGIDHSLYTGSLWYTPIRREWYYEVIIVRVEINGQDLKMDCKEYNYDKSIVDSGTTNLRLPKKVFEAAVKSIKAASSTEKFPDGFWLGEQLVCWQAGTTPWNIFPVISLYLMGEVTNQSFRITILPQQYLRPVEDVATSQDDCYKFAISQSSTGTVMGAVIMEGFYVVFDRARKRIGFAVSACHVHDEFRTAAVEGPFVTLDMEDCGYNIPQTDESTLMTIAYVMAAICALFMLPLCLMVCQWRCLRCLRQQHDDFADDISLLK
Procedure: Cellular Aβ-Lowering Assay:
The Abeta 40 AlphaLISA Assay can be used. The HEK293 APP cells were seeded in 96 well Microtiter plates in cell culture medium (Iscove's, plus 10% (vv) fetal bovine serum, penicillinstreptomycin) to about 80% confluency and the compounds were added at a 3× concentration in 13 volume of culture medium (final DMSO concentration was kept at 1% vv). After 18-20 hrs incubation at 37° C. and 5% CO2 in a humidified incubator, the culture supernatants were harvested for the determination of Aβ 40 concentrations using Perkin-Elmer Human Amyloid beta 1-40 (high specificity) Kit (Cat# AL275C).
Levels of Aβ 40 in the culture supernatants were calculated as percentage of maximum signal (cells treated with 1% DMSO without inhibitor). The IC50 values were calculated using the Excel XLfit software.

## NC1=N[C@](CF)(c2cc(NC(=O)c3nn(C(F)F)cc3Cl)ccc2F)C[C@@H](C(F)(F)F)O1 [Example 46, N-(3-((4S,6S)-2-Amino-4-(fluoromethyl)-6-(trifluoromethyl)-5,6-dihydro-4H-1,3-oxazin-4-yl)-4-fluorophenyl)-4-chloro-1-(difluoromethyl)-1H-pyrazole-3-carboxamide]
[1]
  response vs control in vivo at 10 mg/kg: 61%
[2]
  IC50: > 200000 nM
[3]
  IC50: > 50000 nM
[4]
  hERG Inhibition @ 10 μM: 8
[5]
  IC50: > 50000 nM
[6]
  IC50: > 200000 nM
[7]
  IC50: 24000 nM
[8]
  GSH human (glutathione adduct formation): NF

## COc1cnc(C(=O)Nc2ccc(F)c([C@]3(CF)C[C@@H](C(F)(F)F)OC(N)=N3)c2)cn1 [Example 36, N-(3-((4S,6S)-2-Amino-4-(fluoromethyl)-6-(trifluoromethyl)-5,6-dihydro-4H-1,3-oxazin-4-yl)-4-fluorophenyl)-5-methoxypyrazine-2-carboxamide]
[1]
  response vs control in vivo at 10 mg/kg: 88%
[2]
  IC50: > 200000 nM
[3]
  IC50: > 50000 nM
[4]
  hERG Inhibition @ 10 μM: 7
[5]
  IC50: > 50000 nM
[6]
  IC50: > 200000 nM
[7]
  IC50: 16000 nM
[8]
  GSH human (glutathione adduct formation): NF

## N#Cc1ccc(C(=O)Nc2ccc(F)c([C@]3(CF)C[C@@H](C(F)(F)F)OC(N)=N3)c2)nc1 [Example 3, N-(3-((4S,6S)-2-amino-4-(fluoromethyl)-6-(trifluoromethyl)-5,6-dihydro-4H-1,3-oxazin-4-yl)-4-fluorophenyl)-5-cyanopicolinamide]
[2]
  IC50: > 200000 nM
[6]
  IC50: > 200000 nM

## NC1=N[C@](CF)(c2cc(NC(=O)c3ccc(OC(F)(F)F)cn3)ccc2F)C[C@@H](C(F)(F)F)O1 [Example 32, N-(3-((4S,6S)-2-Amino-4-(fluoromethyl)-6-(trifluoromethyl)-5,6-dihydro-4H-1,3-oxazin-4-yl)-4-fluorophenyl)-5-(trifluoromethoxy)picolinamide]
[9]
  IC50: 7 nM

## COc1ccc(C(=O)Nc2ccc(F)c([C@]3(C)C[C@@H](C(F)(F)F)OC(N)=N3)c2)nc1 [Example 14, N-(3-((4S,6S)-2-Amino-4-methyl-6-(trifluoromethyl)-5,6-dihydro-4H-1,3-oxazin-4-yl)-4-fluorophenyl)-5-methoxypicolinamide]
[9]
  IC50: 2 nM

## N#Cc1cnc(C(=O)Nc2ccc(F)c([C@]3(CF)C[C@@H](C(F)(F)F)OC(N)=N3)c2)c(Cl)c1 [Example 28, N-(3-((4S,6S)-2-Amino-4-(fluoromethyl)-6-(trifluoromethyl)-5,6-dihydro-4H-1,3-oxazin-4-yl)-4-fluorophenyl)-3-chloro-5-cyanopicolinamide]
[9]
  IC50: 11 nM

## NC1=N[C@](CF)(c2cc(NC(=O)c3ccc(C(F)F)cn3)ccc2F)C[C@@H](C(F)(F)F)O1 [Example 33, N-(3-((4S,6S)-2-Amino-4-(fluoromethyl)-6-(trifluoromethyl)-5,6-dihydro-4H-1,3-oxazin-4-yl)-4-fluorophenyl)-5-(difluoromethyl)picolinamide]
[9]
  IC50: 10 nM

## C[C@@]1(c2cc(NC(=O)c3nn(C(F)F)cc3Cl)ccc2F)C[C@@H](C(F)(F)F)OC(N)=N1 [Example 26, N-(3-((4S,6S)-2-Amino-4-methyl-6-(trifluoromethyl)-5,6-dihydro-4H-1,3-oxazin-4-yl)-4-fluorophenyl)-4-chloro-1-(difluoromethyl)-1H-pyrazole-3-carboxamide]
[9]
  IC50: 1 nM

## C[C@@]1(c2cc(NC(=O)c3ccc(C(F)F)cn3)ccc2F)C[C@@H](C(F)(F)F)OC(N)=N1 [Example 17, N-(3-((4S,6S)-2-Amino-4-methyl-6-(trifluoromethyl)-5,6-dihydro-4H-1,3-oxazin-4-yl)-4-fluorophenyl)-5-(difluoromethyl)picolinamide]
[9]
  IC50: 2 nM

## C[C@@]1(c2cc(NC(=O)c3cnc(CF)cn3)ccc2F)C[C@@H](C(F)(F)F)OC(N)=N1 [Example 19, N-(3-((4S,6S)-2-Amino-4-methyl-6-(trifluoromethyl)-5,6-dihydro-4H-1,3-oxazin-4-yl)-4-fluorophenyl)-5-(fluoromethyl)pyrazine-2-carboxamide]
[9]
  IC50: 6 nM

## NC1=N[C@](CF)(c2cc(NC(=O)c3coc(CF)n3)ccc2F)C[C@@H](C(F)(F)F)O1 [Example 47, N-(3-((4S,6S)-2-Amino-4-(fluoromethyl)-6-(trifluoromethyl)-5,6-dihydro-4H-1,3-oxazin-4-yl)-4-fluorophenyl)-2-(fluoromethyl)oxazole-4-carboxamide]
[9]
  IC50: 1 nM

## C[C@@]1(c2cc(NC(=O)c3ccc(OCC(F)(F)F)cn3)ccc2F)C[C@@H](C(F)(F)F)OC(N)=N1 [Example 18, N-(3-((4S,6S)-2-Amino-4-methyl-6-(trifluoromethyl)-5,6-dihydro-4H-1,3-oxazin-4-yl)-4-fluorophenyl)-5-(2,2,2-trifluoroethoxy)picolinamide]
[9]
  IC50: 8 nM

## C[C@@]1(c2cc(NC(=O)c3cnc(OC(F)F)cn3)ccc2F)C[C@@H](C(F)(F)F)OC(N)=N1 [Example 24, N-(3-((4S,6S)-2-Amino-4-methyl-6-(trifluoromethyl)-5,6-dihydro-4H-1,3-oxazin-4-yl)-4-fluorophenyl)-5-(difluoromethoxy)pyrazine-2-carboxamide]
[9]
  IC50: 3 nM
